The source of these data is patent US7071197B2, “N,N-disubstituted diazocycloalkanes” (Recordati S.A., priority 2002, dated 2006).

Structures are written as SMILES.

One test concerns the target T1, human α1a-adrenoceptor (Homo sapiens, UniProt P35348).
T1 construct: expressed in transfected cells
T1 sequence (P35348 1-466): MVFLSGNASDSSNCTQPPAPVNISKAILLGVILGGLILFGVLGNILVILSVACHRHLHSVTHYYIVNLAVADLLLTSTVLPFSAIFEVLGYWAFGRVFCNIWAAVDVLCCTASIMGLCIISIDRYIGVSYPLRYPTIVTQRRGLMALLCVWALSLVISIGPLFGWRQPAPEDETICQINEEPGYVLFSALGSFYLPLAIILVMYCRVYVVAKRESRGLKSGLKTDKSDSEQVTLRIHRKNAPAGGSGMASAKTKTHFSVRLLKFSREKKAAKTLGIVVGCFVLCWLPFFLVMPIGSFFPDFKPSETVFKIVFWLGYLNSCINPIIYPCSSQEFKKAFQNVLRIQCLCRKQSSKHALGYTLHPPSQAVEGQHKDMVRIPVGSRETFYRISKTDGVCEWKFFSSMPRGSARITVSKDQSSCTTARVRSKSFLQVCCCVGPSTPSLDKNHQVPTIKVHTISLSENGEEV
The experiment in a line: [3H]prazosin binding to cloned human α1-adrenoceptor subtypes (α1a). To be noted: for Ki: [3H]prazosin, CHO cell membranes, read-out: Binding affinity (Ki, nM) α1a; for α1a/5-HT1A: selectivity: ratio of Ki at α1a and Ki at 5-HT1A. As for the experimental part: Binding to cloned human α1-adrenoceptor subtypes was performed in membranes from CHO cells (chinese hamster ovary cells) transfected by electroporation with DNA expressing the gene encoding each α1-adrenoceptor subtype. Cloning and stable expression of the human α1-adrenoceptor gene was performed as previously described (Testa et al. Pharmacol. Comm., 6: 79–86,1995).
CHO cells were grown in suspension in Iscove's modified Dulbecco's medium, supplemented with 10% fetal calf serum and gentamicin (50 μg/ml), at 37° C. in 7% CO2 in an humidified incubator. Cells were collected by centrifugation, lised in ice-cold Tris 5 mM and EDTA 5 mM buffer (pH 7.4) and gently homogenised. Homogenates were centrifuged at 40000×g×20 min and pellets were resuspended in a small volume of ice-cold Tris 5 mM and EDTA 5 mM buffer (pH 7.4) and immediately frozen and stored at −80° C. until use.
CHO cell membranes were resuspended and incubated in 50 mM Tris, pH 7.4, with 0.2 nM [^3H]prazosin, in a final volume of 1.02 ml for 30 min at 25° C., in absence or presence of competing drugs. Non-specific binding was determined in the presence of 10 μM phentolamine. The incubation was stopped by rapid filtration through 0.2% polyethyleneimine pretreated Schleicher & Schuell GF52 filters using a Tomtec (PerkinElmer) cell harvester. The filters were washed with 3×1 ml of ice-cold Tris buffer, dried and the radioactivity was measured in a Betaplate (Wallac) liquid scintillation counter.
The inhibition of specific binding by the compounds was analysed to estimate the IC50 value by the non-linear curve-fitting program Allfit (De Lean et al. Am. J. Physiol. 235, E97-E102, 1978). The IC50 value is converted to an affinity constant (Ki) by the equation of Cheng & Prusoff (Biochem. Pharmacol. 22: 3099–3108, 1973).

The target in test [1] is T2, human 5HT1A-serotonergic receptor (Homo sapiens, UniProt P08908).
T2 construct: expressed in transfected cells
T2 sequence (P08908 1-422): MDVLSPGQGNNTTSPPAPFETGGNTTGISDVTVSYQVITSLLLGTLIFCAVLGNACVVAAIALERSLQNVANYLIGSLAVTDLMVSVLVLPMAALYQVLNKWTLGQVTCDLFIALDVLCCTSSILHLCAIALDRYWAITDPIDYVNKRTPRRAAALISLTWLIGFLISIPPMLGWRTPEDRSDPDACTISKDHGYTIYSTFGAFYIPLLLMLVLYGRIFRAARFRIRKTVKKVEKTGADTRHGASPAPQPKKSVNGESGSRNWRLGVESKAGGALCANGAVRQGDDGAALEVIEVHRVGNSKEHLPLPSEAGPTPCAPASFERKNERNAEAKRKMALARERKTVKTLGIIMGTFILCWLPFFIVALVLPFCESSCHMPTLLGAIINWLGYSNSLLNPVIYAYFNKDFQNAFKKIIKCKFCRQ
The experiment in a line: [3H]8-OH-DPAT radioligand binding to human recombinant 5-HT1A receptors. To be noted: for Ki: [3H]8-OH-DPAT, HeLa cell membranes, read-out: Affinity: Ki; for potency at the 5-HT1A receptor compared with Ex. 5: statistical signficance p<0.01. As to the method:
A genomic clone coding for the human 5HT1A-serotonergic receptor was stably transfected in a human cell line (HeLa). HeLa cells were grown as monolayers in Dulbecco's modified Eagle medium (DMEM), containing 10% fetal bovine serum, gentamycin (0.1 mg/ml) and 5% carbon dioxide, at 37° C. The cells were detached from the growth flask at 95% confluence by a cell scraper and were lysed in cold 5 mM Tris and 5 mM EDTA buffer (pH 7.4). The homogenates were centrifuged at 40000×g×20 minutes and the pellets were resuspended in a small volume of cold 5 mM Tris and 5 mM EDTA buffer (pH 7.4) and immediately frozen and stored at −70° C. until use.
[^3H]8-OH-DPAT binding: on the day of experiment, the cell membranes were resuspended in incubation buffer: 50 mM Tris HCl (pH 7.4), 2.5 mM MgCl2, […] (Fargin et al., Nature 335, 358–360, 1988). The membranes were incubated in a final volume of 1 ml for 30 minutes at 30° C. with 1 nM [^3H]8-OH-DPAT, in the absence or presence of the test compounds. Non-specific binding was determined in the presence of 10 μM 5-HT. Incubation was stopped by addition of cold Tris-HCl buffer and rapid filtration through a 0.2%-polyethyleneimine-pretreated Whatman-GF/B or Schleicher-&-Schuell-GF52 filter.
The affinity of the tested compounds was evaluated as inhibition of specific binding of the radioligand to 5-HT1A receptors (IC50) by using the non-linear curve-fitting program (De Lean et al., Am. J. Physiol. 235, E97-E102, 1978). The IC50 value was converted to an affinity constant (Ki) by the equation of Cheng et al., Biochem. Pharmacol. 22, 3099–3108 (1973).

Consider `COc1ccccc1N1CCN(CC[C@@H](c2ccccc2F)[C@H](O)C2CCCCC2)CC1` (racemic) [Ex. 1, 1-[(SR-RS)-4-cyclohexyl-4-hydroxy-3-(2-fluorophenyl)-butyl]-4-(2-methoxyphenyl)-piperazine], for which, at human α1a-adrenoceptor, the Ki was found to be 18 nM and the α1a/5-HT1A is listed as 138. For the same compound, in test [1], the Ki stood at 0.13 nM and the “potency at the 5-HT1A receptor compared with Ex. 5” value (shortened to “potency … compared with Ex. 5”) is reported as “more potent than Ex. 5”.

For `COc1ccccc1N1CCN(CC[C@H](c2ccccc2)[C@@H](O)C2CCCCC2)CC1` (racemic) [Ex. 5, 1-[(RS,SR)-4-Cyclohexyl-4-hydroxy-3-phenyl-butyl]-4-(2-methoxyphenyl)-piperazine, reference compound], the Ki was 51 nM at human α1a-adrenoceptor and 0.65 nM in test [1]. The α1a/5-HT1A at human α1a-adrenoceptor is reported as 78.

Consider `COc1ccccc1N1CCN(CC[C@H](c2ccccc2F)[C@@H](O)C2CCCCC2)CC1` [Ex. 1Y, 1-[(3R,4S)-4-cyclohexyl-4-hydroxy-3-(2-fluorophenyl)-butyl]-4-(2-methoxyphenyl)-piperazine], for which, at human α1a-adrenoceptor, the Ki stood at 24 nM and the α1a/5-HT1A came to 65. In test [1], the Ki was found to be 0.37 nM and the “potency … compared with Ex. 5” value is recorded as “more potent than Ex. 5”.

As to `COc1ccccc1N1CCN(CC[C@H](c2ccccc2F)[C@H](O)C2CCCCC2)CC1` [Ex. 2X, 1-[(3R,4R)-4-cyclohexyl-4-hydroxy-3-(2-fluorophenyl)-butyl]-4-(2-methoxyphenyl)-piperazine], on human α1a-adrenoceptor, the Ki was 44 nM and the α1a/5-HT1A is on record as 183. In addition, in test [1], the Ki came out at 0.24 nM and the “potency … compared with Ex. 5” value was “more potent than Ex. 5”.

The Ki is a measure of affinity in units of concentration, obtained from inhibition or displacement.
